Biological target: T1, bovine serum albumin (BSA) (Bos taurus, UniProt P02769)
T1 construct: gene ALB; BSA fraction V (Sigma), 583 amino acid residues
Experiment: intrinsic fluorescence quenching titration (static; Kb at […] K, pH […], n = […]), supported by UV-vis, CD and FRET
Format: binding
Conditions: read-out: Kb (10^6 M^-1) (converted)

T1 sequence (P02769 25-607): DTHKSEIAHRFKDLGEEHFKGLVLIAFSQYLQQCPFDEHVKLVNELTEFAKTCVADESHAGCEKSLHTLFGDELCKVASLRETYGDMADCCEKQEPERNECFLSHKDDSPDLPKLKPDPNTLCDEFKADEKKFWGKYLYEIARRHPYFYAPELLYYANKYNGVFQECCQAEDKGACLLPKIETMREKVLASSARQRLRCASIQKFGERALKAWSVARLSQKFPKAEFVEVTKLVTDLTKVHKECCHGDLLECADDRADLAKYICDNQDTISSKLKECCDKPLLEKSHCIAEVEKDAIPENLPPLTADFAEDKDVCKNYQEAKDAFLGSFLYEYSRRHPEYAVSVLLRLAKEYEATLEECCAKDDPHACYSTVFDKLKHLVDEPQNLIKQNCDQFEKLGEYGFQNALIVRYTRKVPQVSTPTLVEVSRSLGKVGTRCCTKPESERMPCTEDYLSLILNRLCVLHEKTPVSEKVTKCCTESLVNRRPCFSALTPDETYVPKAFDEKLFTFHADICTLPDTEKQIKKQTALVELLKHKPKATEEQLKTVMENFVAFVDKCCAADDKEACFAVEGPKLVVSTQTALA

- Kd: 813 nM
SMILES: COc1ccc(-c2cc(=O)c3c(O)c(OC)c(OC)cc3o2)cc1O [eupatorin]

Source: PMC3742238, “Characterization of the Interaction between Eupatorin and Bovine Serum Albumin by Spectroscopic and Molecular Modeling Methods” (International Journal of Molecular Sciences, 2013)
